System: hypertensive patients
Assay: Pharmacogenomic study: change of office systolic blood pressure (DSBP5_0) after 5 weeks of rostafuroxin vs placebo, by genotype
Format: in vivo, human
Details: for response (average blood pressure change): individuals carrying all core SNPs; for Delta DSBP5_0: therapy vs placebo
Description: A pharmacogenomic study was performed to ascertain the effect of genetic variations on an individual response to rostafuroxin. The sample for the pharmacogenomic study consisted of 342 individuals that were genotyped with the Human1M array from Illumina using Human1M Duo CHIP genotyping Bead Chip according to procedure described in [Ref. 10, 11, 12]. Among the individuals, 169 were administered the placebo treatment and 173 the active drug (rostafuroxin) in the first period (5 weeks) with demographics as in [Ref 13]. In particular, patients were randomized to one of the following oral doses of rostafuroxin: 0.05, 0.15, 0.5, 1.5, or 5 mg/day for 5 weeks. Each dose had to be compared to a placebo in a crossover design.
For the above sample of individuals a genetic association analysis, was performed to associate the phenotype of the tested individuals with the SNPs detected in the individuals. The selected phenotype of interest was the blood pressure response. The SNPs selected for detection were the 1111170 SNPs on autosomal chromosomes of the individual.
The genetic analysis was performed according to a quantitative genetic association design where the phenotype of interest is a quantitative variable (QT), and the variables (factors) affecting the distribution of the phenotype of interest are SNPs, therapy (placebo, rostafuroxin) and the SNP*therapy interaction.
In particular, the quantitative phenotype selected for the statistical analyses was the difference in mmHg between the office Systolic Blood Pressure (SBP) at the end of first treatment period (SBP_5) and the office Systolic Blood Pressure at baseline after one month of run-in (SBP_0) and is herein also identified as DSBP5_0. The selected QT phenotype and other factors affecting distribution of the phenotype of interest were then analyzed according to the following quantitative trait interaction test Phenotype=SNP+therapy+SNP*therapy as illustrated in further details below.
In particular, in Table 2 the descriptive statistics of DSBP5_0 for the entire sample and for the patients treated with placebo and rostafuroxin are listed. The rather modest basal level of SBP can be explained in view of the recruitment of patients with “mild” hypertension (SBP range 140-179 mmHg), required by the inclusion of a placebo arm.
Those SNPs were further selected to identify the genotypes with the largest response to rostafuroxin compared to placebo by performing a Statistical ANOVA analysis using STATA software in placebo and rostafuroxin with DSBP5_0 as dependent variable and the candidate significant SNPs as independent variables. In particular, to select the genotypes of the interactions between two SNPs with the largest response to rostafuroxin compared to placebo, the Applicants performed an ANOVA statistics in placebo and rostafuroxin with DSBP5_0 as dependent variable and the interaction s between SNPs as independent variables. The Applicants report an example of this procedure in FIG. 5: interaction between rs8899 and rs4678. The Applicants selected the interaction between the genotype AA of rs8899 and the genotype BB of rs4678 because it presents the greatest remarkable decrement in the therapy group and not in the placebo group.
In particular, to select the genotypes with the largest response to rostafuroxin compared to placebo, the Applicants performed an ANOVA statistics (oneway) in placebo and rostafuroxin with DSBP5_0 as dependent variable and the significant SNPs as independent variables.

[1] = GWS SNP rs9361863 (LOC728360) genotype 2
[2] = GWS SNP rs9893372 (ATP2A3) genotype 3
[3] = GWS SNP rs10159569 (SH3PXD2A) genotype 1
[4] = GWS SNP rs10493940 (SLC30A7) genotype 2
[5] = GWS SNP rs10493940 (SLC30A7) genotype 3
[6] = GWS SNP rs12513375 (TTC29) genotype 3
[7] = GWS SNP rs12996186 (ARL5A) genotype 2
[8] = GWS SNP rs16877182 (THSD7A) genotype 2
[9] = GWS SNP rs16893522 (FAM46A) genotype 1
[10] = GWS SNP rs16893522 (FAM46A) genotype 2
[11] = GWS SNP rs17414954 (VCAM1) genotype 2
[12] = individuals carrying the genetic variations
[13] = interaction ADD2 rs4984 CC x TOP rs10502933 CT
[14] = interaction HSD19 rs947130 GG x NEDD4L rs4309483 AA
[15] = interaction HSD19 rs947130 GG x NKAIN3 rs4739037 GA
[16] = interaction LSS2 rs914247 AA x ADD1 rs4961 GT + TT
[17] = interaction LSS2 rs914247 AA x WNK1 rs880054 AG + GG
[18] = interaction LSS2 rs914247 GA + AA x MDR2 rs1045642 CC
[19] = interaction MDR2 rs1045642 TT x AGTR1 rs2131127 CC
[20] = interaction MDR2 rs1045642 TT x HSD18 rs10923835 AT + TT

C[C@]12CC[C@H](O)C[C@H]1CC[C@@H]1[C@@H]2CC[C@]2(C)[C@@](O)(c3ccoc3)CC[C@]12O [rostafuroxin, 17β-(3-furyl)-5β-androstane-3β,14β,17α-triol]
DSBP5_0 therapy (GWS SNP rs9361863 (LOC728360) genotype 1): −15 mmHg | DELTA delta Therapy placebo [1]: 8.833 mmHg | DSBP5_0 therapy [1]: −13.48 mmHg | DELTA delta Therapy placebo [2]: 4.434 mmHg | DSBP5_0 therapy [2]: −10.91 mmHg | DELTA delta Therapy placebo [3]: 10.63 mmHg | DSBP5_0 therapy [3]: −13.17 mmHg | DELTA delta Therapy placebo [4]: 5.95 mmHg | DSBP5_0 therapy [4]: −12.13 mmHg | DELTA delta Therapy placebo [5]: 28.95 mmHg | DSBP5_0 therapy [5]: −25 mmHg | DELTA delta Therapy placebo [6]: 15.93 mmHg | DSBP5_0 therapy [6]: −19.18 mmHg | DELTA delta Therapy placebo [7]: 17.96 mmHg | DSBP5_0 therapy [7]: −22.79 mmHg | DELTA delta Therapy placebo [8]: 18.85 mmHg | DSBP5_0 therapy [8]: −21.67 mmHg | DELTA delta Therapy placebo [9]: 27.03 mmHg | DSBP5_0 therapy [9]: −22.43 mmHg | DELTA delta Therapy placebo [10]: 2.874 mmHg | DSBP5_0 therapy [10]: −1.138 mmHg | DELTA delta Therapy placebo [11]: 7.158 mmHg | DSBP5_0 therapy [11]: −13.03 mmHg | Mean fall in blood pressure mmHg (DSBP5_0) (all never previously treated (NPT) patients on therapy (99 IDs), 5 weeks, no genotype selection): −5.831 mmHg | DSBP5_0 therapy (carriers rs914247 (LSS2) AA (CAND 1 SNP)): −17 mmHg | DSBP5_0 therapy (carriers rs2345088 TT (Illumina genotype 1), NPT patients, 5 weeks): −30.5 mmHg | DSBP5_0 therapy (carriers rs2461911 AA (Illumina genotype 1), NPT patients, 5 weeks): −20.6 mmHg | DSBP5_0 therapy (carriers rs5013093 TT (Illumina genotype 1), NPT patients, 5 weeks): −20.49 mmHg | DSBP5_0 therapy (carriers rs12513375 TT (Illumina genotype 3), NPT patients, 5 weeks): −19.18 mmHg | DSBP5_0 therapy (carriers rs16877182 C/T (Illumina genotype 2), NPT patients, 5 weeks): −21.67 mmHg | DSBP5_0 therapy (carriers rs16893522 AA (Illumina genotype 1), NPT patients, 5 weeks): −22.43 mmHg | response (average blood pressure change) (high dosages): −15 mmHg | average decrease in systolic blood pressure (high doses (1.5; 5.0 mg/day), individuals carrying the genetic variations): −12 mmHg | average decrease in nightly blood pressure [12]: ≥ 9 mmHg | average decrease in office blood pressure [12]: at least 15 mmHg | DSBP50 ROSTAFUROXIN [13]: .−19.21 mmHg | Delta Rosta_placebo [13]: 24.73 mmHg | DSBP50 ROSTAFUROXIN [14]: .−17.85 mmHg | Delta Rosta_placebo [14]: 28.15 mmHg | DSBP50 ROSTAFUROXIN [15]: .−18.18 mmHg | Delta Rosta_placebo [15]: 15.72 mmHg | DSBP50 ROSTAFUROXIN [16]: .−22.32 mmHg | Delta Rosta_placebo [16]: 27.49 mmHg | DSBP50 ROSTAFUROXIN [17]: .−16 mmHg | Delta Rosta_placebo [17]: 16.48 mmHg | DSBP50 ROSTAFUROXIN [18]: .−16.91 mmHg | Delta Rosta_placebo [18]: 12.96 mmHg | DSBP50 ROSTAFUROXIN [19]: .−16.9 mmHg | Delta Rosta_placebo [19]: 14.34 mmHg | DSBP50 ROSTAFUROXIN [20]: .−17.40 mmHg | Delta Rosta_placebo [20]: 17.30 mmHg | response (average blood pressure change) (low dosages): −23 mmHg | average decrease in systolic blood pressure (lower doses (0.05; 0.15; 0.5 mg/day), individuals carrying the genetic variations): approximately 18 mmHg | Delta DSBP5_0 (carriers rs2345088 TT (genotype 1)): 33.93, mmHg | Delta DSBP5_0 (carriers rs2461911 AA (genotype 1)): 22.82, mmHg | Delta DSBP5_0 (carriers rs5013093 TT (genotype 1)): 22.09, mmHg | Delta DSBP5_0 (carriers rs12513375 TT (genotype 3)): 15.93, mmHg | Delta DSBP5_0 (carriers rs16877182 C/T (genotype 2)): 18.85, mmHg | Delta DSBP5_0 (carriers rs16893522 AA (genotype 1)): 27.03, mmHg | tolerability and quality of life (treated individuals, trial results): good tolerability and quality of life

Source: patent US9408854B2, “Methods and systems for pharmacogenomic treatment of cardiovascular conditions” (ROSTAQUO S.P.A., priority 2009, dated 2016)
